In US6579983B1, “5-cyano-2-aminopyrimidine derivatives” (Celltech R&D Limited, priority 1999, dated 2003):

Q: Which melting point does the source give for `CC(C)(N)c1ccc(-c2nc(Nc3ccc4[nH]ncc4c3)ncc2C#N)cc1` [Example 8, 4-[4-(1-Amino-1-methylethyl)phenyl]-5-cyano-N-(indazol-5-yl)pyrimidine-2-amine] here?
A: 267 to 271 °C (dec.)

Q: For `COc1cc(Nc2ncc(C#N)c(-c3ccc(C(C)(C)N)cc3)n2)cc(OC)c1OC` [Example 9, 4-[4-(1-Amino-1-methylethyl)phenyl]-5-cyano-N-(3,4,5-trimethoxyphenyl)pyrimidine-2-amine], which melting point is on record?
A: 167 to 168 °C
